Laboratory results reported in US10328084B2, “Pyrrolobenzodiazepines and targeted conjugates” (priority 2011, dated 2019).

Columns and labels:
Format in all cases: cell-based
786-O = experiment: in vitro cytotoxic activity, resazurin reduction assay, 786-O; details: Homo sapiens, 786-0, 48 h, read-out: IC50 in pM following 48 hours treatment, 786-O
Experimental: (§1) The in vitro cytotoxic activity of the selected antibody drug conjugate was assessed using a resazurin (Sigma, St. Louis, Mo., USA) reduction assay (reference: Doronina et al., Nature Biotechnology, 2003, 21, 778-784). The antibody drug conjugate was prepared as described above.
(§2) For the 96-hour assay, cells cultured in log-phase growth were seeded for 24 h in 96-well plates containing 150 μL RPMI 1640 supplemented with 20% FBS. Serial dilutions of ADC in cell culture media were prepared at 4× working concentration; 50 μL of each dilution was added to the 96-well plates. Following addition of ADC, the cells were incubated with test articles for 4 days at 37° C. Resazurin was then added to each well to achieve a 50 μM final concentration, and the plates were incubated for an additional 4 hours at 37° C. The plates were then read for the extent of dye reduction on a Fusion HT plate reader (Packard Instruments, Meridien, Conn., USA) with excitation and emission wavelengths of 530 and 590 nm, respectively. The IC50 value, determined in triplicate, is defined here as the concentration that results in a 50% reduction in cell growth relative to untreated controls.
(§3) Referring to the table below, the in vitro cytotoxicity of the ADC using the 96 hour assay is shown. […]

Caki-1 = experiment: in vitro cytotoxic activity, resazurin reduction assay, Caki-1; details: Homo sapiens, CAKI-1, 48 h, read-out: IC50 in pM following 48 hours treatment, Caki-1
Experimental: as §1, §2, §3

HEL9217 = experiment: in vitro cytotoxic activity, HEL9217; details: Homo sapiens, HEL 92.1.7; HEL9217, 48 hours treatment, free PBD dimer; read-out: IC50 in pM following 48 hours treatment, HEL9217
Experimental: as §1
as §2, with “For the 96-hour assay, cells cultured in log-phase growth were seeded for 24 h in 96-well plates containing 150 μL RPMI 1640 supplemented with 20% FBS.” left out, “Following addition of ADC, the cells were incubated with test articles for 4 days at 37° C.” left out

HL60 = experiment: in vitro cytotoxic activity, HL60; details: Homo sapiens, HL-60; HL60, 48 hours treatment, free PBD dimer; read-out: IC50 in pM following 48 hours treatment, HL60
Experimental: as §1
as §2, with “For the 96-hour assay, cells cultured in log-phase growth were seeded for 24 h in 96-well plates containing 150 μL RPMI 1640 supplemented with 20% FBS.” left out, “Following addition of ADC, the cells were incubated with test articles for 4 days at 37° C.” left out

Row | Structure (SMILES) | IC50 (786-O) | IC50 (Caki-1) | IC50 (HEL9217) | IC50 (HL60)
1 | COc1cc2c(cc1OCCCCCOc1cc3c(cc1OC)C(=O)N1C=C(c4ccc(OCCCN(C)C)cc4)C[C@H]1C=N3)N=C[C@@H]1CC(c3ccc(N)cc3)=CN1C2=O [compound 17, (S)-2-(4-aminophenyl)-8-((5-(((S)-2-(4-(3-(dimethylamino)propoxy)phenyl)-7-methoxy-5-oxo-5,11a-dihydro-1H-benzo[e]pyrrolo[1,2-a][1,4]diazepin-8-yl)oxy)pentyl)oxy)-7-methoxy-1H-benzo[e]pyrrolo[1,2-a][1,4]diazepin-5(11 aH)-one] | 7 pM | 2 pM | 2 pM | 3 pM
2 | COCCOCCOCCOCCOc1ccc(C2=CN3C(=O)c4cc(OC)c(OCCCCCOc5cc6c(cc5OC)C(=O)N5C=C(c7ccc(N)cc7)C[C@@H]5C=N6)cc4N=C[C@H]3C2)cc1 [compound 23, (R)-2-(4-(2,5,8,11-tetraoxatridecan-13-yloxy)phenyl)-8-((5-(((R)-2-(4-aminophenyl)-7-methoxy-5-oxo-5,11a-dihydro-1H-benzo[e]pyrrolo[1,2-a][1,4]diazepin-8-yl)oxy)pentyl)oxy)-7-methoxy-1H-benzo[e]pyrrolo[1,2-a][1,4]diazepin-5(11aH)-one] | 100 pM | 100 pM | 100 pM | 40 pM
